Results reported in ChEMBL document CHEMBL2412979, “2-(2-Methylfuran-3-carboxamido)-3-phenylpropanoic acid, a potential CYP26A1 inhibitor to enhance all-trans retinoic acid-induced leukemia cell differentiation based on virtual screening and biological evaluation” (Bioorg Med Chem, 2013).

Assays:
NB-4 [1] = assay: Potentiation of ATRA-induced human NB4 cell differentiation at 5 uM after 96 hrs by nitroblue tetrazolium assay (reference value: 29.44 +/- 2.03%); assay type: functional
NB-4 [2] = assay: Potentiation of ATRA-induced human NB4 cell differentiation at 10 uM after 96 hrs by nitroblue tetrazolium assay (reference value: 29.44 +/- 2.03%); assay type: functional
NB-4 [3] = assay: Cytotoxicity against human NB4 cells assessed as growth inhibition at 0.5 uM after 96 hrs by hemocytometry relative to control; assay type: functional; conditions: NB-4, 96 h, read-out: GI
NB-4 [4] = assay: Cytotoxicity against human NB4 cells assessed as growth inhibition at 10 uM after 96 hrs by hemocytometry relative to control; assay type: functional; conditions: NB-4, 96 h, read-out: GI
Cytochrome P450 26A1 = target: T1, Cytochrome P450 26A1 (Homo sapiens, UniProt O43174); assay: Inhibition of CYP26A1 in human NB4 cells assessed as ATRA level in medium at 5 uM after 12 hrs by LC-MS/MS analysis (reference value: 27.05 +/- 1.34 ng/ml); assay type: cell-based; conditions: nb-4, 12 h
T1 sequence (O43174 whole entry): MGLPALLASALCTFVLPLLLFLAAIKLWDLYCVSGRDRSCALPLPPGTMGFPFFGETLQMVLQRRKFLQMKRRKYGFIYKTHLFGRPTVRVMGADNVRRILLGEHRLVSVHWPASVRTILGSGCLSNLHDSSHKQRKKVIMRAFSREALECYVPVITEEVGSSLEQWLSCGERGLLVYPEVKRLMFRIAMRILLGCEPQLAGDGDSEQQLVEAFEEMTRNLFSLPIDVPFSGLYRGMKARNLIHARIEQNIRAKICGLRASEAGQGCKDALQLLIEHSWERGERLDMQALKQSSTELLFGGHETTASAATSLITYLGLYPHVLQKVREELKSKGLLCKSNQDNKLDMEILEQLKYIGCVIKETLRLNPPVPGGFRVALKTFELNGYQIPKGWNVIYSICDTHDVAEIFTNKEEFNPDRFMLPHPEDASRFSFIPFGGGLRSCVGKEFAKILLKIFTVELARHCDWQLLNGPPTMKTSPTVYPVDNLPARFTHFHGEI

NB-4 [5] = assay: Potentiation of ATRA-induced human NB4 cell differentiation at 0.5 uM after 96 hrs by nitroblue tetrazolium assay (reference value: 29.93 +/- 0.73%); assay type: functional
NB-4 [6] = assay: Potentiation of ATRA-induced human NB4 cell differentiation at 1 uM after 96 hrs by nitroblue tetrazolium assay (reference value: 29.93 +/- 0.73%); assay type: functional
NB-4 [7] = assay: Induction of human NB4 cell differentiation at 0.5 to 10 uM after 96 hrs by nitroblue tetrazolium assay relative to control; assay type: functional
NB-4 [8] = assay: Potentiation of ATRA-induced human NB4 cell growth inhibition at 1 uM after 96 hrs by hemocytometry (reference value: 32.42 +/- 3.98%); assay type: functional; conditions: NB-4, 96 h, read-out: GI
NB-4 [9] = assay: Potentiation of ATRA-induced human NB4 cell growth inhibition at 0.5 uM after 96 hrs by hemocytometry (reference value: 32.42 +/- 3.98%); assay type: functional; conditions: NB-4, 96 h, read-out: GI
NB-4 [10] = assay: Cytotoxicity against human NB4 cells assessed as growth inhibition at 1 uM after 96 hrs by hemocytometry relative to control; assay type: functional; conditions: NB-4, 96 h, read-out: GI
NB-4 [11] = assay: Potentiation of ATRA-induced human NB4 cell growth inhibition at 5 uM after 96 hrs by hemocytometry (reference value: 32.70 +/- 2.25%); assay type: functional; conditions: NB-4, 96 h, read-out: GI
NB-4 [12] = assay: Potentiation of ATRA-induced human NB4 cell growth inhibition at 10 uM after 96 hrs by hemocytometry (reference value: 32.70 +/- 2.25%); assay type: functional; conditions: NB-4, 96 h, read-out: GI
NB-4 [13] = assay: Cytotoxicity against human NB4 cells assessed as growth inhibition at 5 uM after 96 hrs by hemocytometry relative to control; assay type: functional; conditions: NB-4, 96 h, read-out: GI

Row | Activity (Cytochrome P450 26A1) [ng/mL] | Structure (SMILES) | Activity (NB-4 [1]) [%] | Activity (NB-4 [2]) [%] | inhibition of growth at 0.5 µM (NB-4 [3]) [%] | inhibition of growth at 10 µM (NB-4 [4]) [%] | Activity (NB-4 [5]) [%] | Activity (NB-4 [6]) [%] | Activity (NB-4 [7]) [%] | inhibition of growth at 1 µM (NB-4 [8]) [%] | inhibition of growth at 0.5 µM (NB-4 [9]) [%] | inhibition of growth at 1 µM (NB-4 [10]) [%] | inhibition of growth at 5 µM (NB-4 [11]) [%] | inhibition of growth at 10 µM (NB-4 [12]) [%] | inhibition of growth at 5 µM (NB-4 [13]) [%]
1 | 33.9 | Cc1oc(C(C)(C)C)cc1C(=O)NC(Cc1ccccc1)C(=O)O (stereo not drawn) | 45.16 | 42.64 | 12.8 | 8.05 | 39.58 | 38 | 0 | 47.1 | 50.6 | 17.8 | 40.2 | 47.1 | 7.7
2 |  | O=C(CCN1C(=O)c2ccccc2C1=O)NCc1ccncc1 | 41.55 | 41.21 | 14.2 | 12.4 | 35.05 | 37.16 | 0 | 48.5 | 50.8 | 16.5 | 50.9 | 49.7 | 14.6
3 |  | Cc1cc(O)nc(SCC(=O)c2ccc(O)c(O)c2)n1 | 41.32 | 39.43 | 19.3 | 12.8 | 33.19 | 32.57 | 0 | 51.7 | 50.3 | 18.7 | 53.4 | 53.5 | 12.2
4 |  | Cc1cccc(-c2nc3cc(/N=C/c4c(C)cc(O)cc4O)ccc3o2)c1 | 36.43 | 45.38 | 25.8 | 48.5 | 29.21 | 27.65 | 0 | 48.5 | 50.1 | 22.6 | 64.3 | 79 | 37.1
5 |  | COc1ccc(/C=C/C(=O)Nc2sc3c(c2C(=O)O)CCC3)cc1 | 30.05 | 31.42 |  | 1.22 |  |  | 0 |  |  |  | 31.5 | 34.9 | 0.49
6 |  | O=C(Nc1ccncc1)c1cc(-c2ccc(Br)cc2)nc2ccccc12 | 33.68 | 38.52 | 20.2 | 52.9 | 36.53 | 35.7 | 0 | 48.7 | 54.3 | 24.7 | 63.1 | 59.4 | 37.9
7 |  | CC1=CC(=O)OC2C=C(OCCOc3ccc(C(C)(C)C)cc3)C=CC12 (stereo not drawn) | 39.97 | 42.39 | 14.4 | 6.78 | 35.72 | 38.42 | 0 | 43 | 46.1 | 13.6 | 43.5 | 48.3 | 7.78
8 |  | Cc1ccc(OCc2nc(-c3cccnc3)no2)c(Br)c1 | 25.37 | 28.85 |  | 23.5 |  |  | 0 |  |  |  | 39.8 | 42.9 | 18.2
9 |  | O=C(CCN1C(=O)c2ccccc2C1=O)Nc1cc(Cl)ccc1C(=O)O | 39.6 | 36.7 | 13.8 | 9.31 | 35.1 | 36.18 | 0 | 38.6 | 47.9 | 19.2 | 41.3 | 39.1 | 3.68
10 |  | CCOc1ccc(NS(=O)(=O)c2ccc(Br)cc2)cc1 | 26.83 | 30.3 |  | 20.8 |  |  | 0 |  |  |  | 44.1 | 48.4 | 17.1
11 |  | O=C(O)c1ccc(COc2ccc(/C=C3\SC(=O)N(c4cccc(Cl)c4)C3=O)cc2)cc1 | 38.42 | 41.85 | 18.6 | 9.07 | 31.47 | 35.4 | 0 | 53.7 | 44.1 | 18 | 43.8 | 41.1 | 11
12 |  | CC(=O)Nc1ccc(C(=O)Nc2ccc(OCC(=O)O)cc2)cc1 | 38.29 | 38.97 | 7.8 | 14.2 | 37.62 | 34.74 | 0 | 45.1 | 45 | 8.83 | 45.8 | 48.8 | 17.9
13 | 39.78 | Clc1cccc(C(c2ccc3[nH]cnc3c2)n2ccnc2)c1 (stereo not drawn) [LIAROZOLE] | 33.53 | 34.9 | 14.5 | 40.9 | 42.86 | 38.22 | 0 | 46 | 49.6 | 23.1 | 55.3 | 56.3 | 32.7
